# US9073880B2, “2-(2-phenylethenyl) 1,3-benzodiazepine derivatives useful for the treatment of cancer” (Yissum Research Development Company of the Hebrew …, priority 2010, dated 2015)
# Legend:
# Akt/PKB pathway = assay: IGF1-induced Akt/PKB activation in A375 cells (Example 5); format: cell-based, human
# Procedure: The effect of compound 5 on IRS1 & IRS2 levels and its effect on IGF1-induced Akt/PKB activation and apoptosis in melanoma A375 cells were tested. Cells were seeded in 6-well plates (150,000 A375 cells/well) and 24 hours later medium was replaced by serum-free medium (RPMI supplemented with 100 units/ml penicillin and 100 μg/ml streptomycin), […], and then stimulated for 5 minutes with 50 ng/ml IGF-1, washed twice with PBS and lysed by boiling sample buffer (10% glycerol, 50 mM Tris-HCl, pH 6.8, 3% SDS, and 5% β-mercaptoethanol). Equal amounts of protein per lane were separated by 8% SDS-PAGE and transferred to a nitrocellulose membrane (Sartorius AG). To detect the inhibition of the Akt/PKB activation, phosphorylated proteins were immunoblotted with anti-phospho(T308)Akt (pT308-PKB) and anti-phospho-Tuberin/TSC2 (pTuberin) antibodies. To visualize cell death induced by compound 5, the intact and the cleaved PARP were immunoblotted with anti-PARP antibody. The changes in the levels of IRS1 and IRS2 were detected with specific antibodies. Detection was performed with horseradish peroxidase-conjugated secondary antibody using the ECL system. Blots were then stripped of antibodies, blocked with TBST with 5% low fat milk and re-probed with antibodies detecting both the phosphorylated and the non-phosphorylated Akt/PKB. […]
# PKB = assay: IGF1-induced PKB activation in MCF7 cells (western blot); format: cell-based, human; settings: 10 μM, 48 hr, 50 ng/ml IGF-1 5 minutes, FIG. 3
# Procedure: (§1) Tyrosine autophosphorylation of the β-subunit of IGF-1R as well as downstream signaling induced by IGF-1R were assayed in human breast cancer MCF7 cells and in melanoma A375 cells. Cells were seeded in 6-well plates (250,000 A375 cells/well and 300,000 MCF7 cells/well) and 24 hours later medium was replaced by serum-free medium (RPMI supplemented with 100 units/ml penicillin and 100 μg/ml streptomycin). MCF7 cells were exposed for 48 hr to compound 3 at 10 μM concentration, and then stimulated for 5 minutes with 50 ng/ml IGF-1, washed twice with PBS and lysed by boiling sample buffer (10% glycerol, 50 mM Tris-HCl, pH 6.8, 3% SDS, and 5% (3-mercaptoethanol). Equal amounts of protein per lane were separated by 8% SDS-PAGE and transferred to a nitrocellulose membrane (Sartorius AG). Phosphorylated proteins were immunoblotted with anti-phosphoIGF-1R (pIGF-1R), anti-phosphotyrosine-IRS1 (pY-IRS I) and anti-phospho(T308)Akt (pPKB) antibodies. Detection was performed with horseradish peroxidase-conjugated secondary antibody using the ECL system. Blots were then stripped of antibodies, blocked with TBST with 5% low fat milk and re-probed with antibodies detecting both the phosphorylated and the non-phosphorylated corresponding proteins e.g. IGF-1Rβ, IRS1 and PKB.
# IGF-1R = target: T1, IGF-1R (Homo sapiens, UniProt P08069); assay: IGF1-induced IGF-1R auto-phosphorylation in MCF7 cells (western blot); format: cell-based; settings: 10 μM, FIG. 3
# T1 construct: endogenous in cells; host or cells: MCF7 human breast cancer cells
# T1 sequence (P08069 31-1367): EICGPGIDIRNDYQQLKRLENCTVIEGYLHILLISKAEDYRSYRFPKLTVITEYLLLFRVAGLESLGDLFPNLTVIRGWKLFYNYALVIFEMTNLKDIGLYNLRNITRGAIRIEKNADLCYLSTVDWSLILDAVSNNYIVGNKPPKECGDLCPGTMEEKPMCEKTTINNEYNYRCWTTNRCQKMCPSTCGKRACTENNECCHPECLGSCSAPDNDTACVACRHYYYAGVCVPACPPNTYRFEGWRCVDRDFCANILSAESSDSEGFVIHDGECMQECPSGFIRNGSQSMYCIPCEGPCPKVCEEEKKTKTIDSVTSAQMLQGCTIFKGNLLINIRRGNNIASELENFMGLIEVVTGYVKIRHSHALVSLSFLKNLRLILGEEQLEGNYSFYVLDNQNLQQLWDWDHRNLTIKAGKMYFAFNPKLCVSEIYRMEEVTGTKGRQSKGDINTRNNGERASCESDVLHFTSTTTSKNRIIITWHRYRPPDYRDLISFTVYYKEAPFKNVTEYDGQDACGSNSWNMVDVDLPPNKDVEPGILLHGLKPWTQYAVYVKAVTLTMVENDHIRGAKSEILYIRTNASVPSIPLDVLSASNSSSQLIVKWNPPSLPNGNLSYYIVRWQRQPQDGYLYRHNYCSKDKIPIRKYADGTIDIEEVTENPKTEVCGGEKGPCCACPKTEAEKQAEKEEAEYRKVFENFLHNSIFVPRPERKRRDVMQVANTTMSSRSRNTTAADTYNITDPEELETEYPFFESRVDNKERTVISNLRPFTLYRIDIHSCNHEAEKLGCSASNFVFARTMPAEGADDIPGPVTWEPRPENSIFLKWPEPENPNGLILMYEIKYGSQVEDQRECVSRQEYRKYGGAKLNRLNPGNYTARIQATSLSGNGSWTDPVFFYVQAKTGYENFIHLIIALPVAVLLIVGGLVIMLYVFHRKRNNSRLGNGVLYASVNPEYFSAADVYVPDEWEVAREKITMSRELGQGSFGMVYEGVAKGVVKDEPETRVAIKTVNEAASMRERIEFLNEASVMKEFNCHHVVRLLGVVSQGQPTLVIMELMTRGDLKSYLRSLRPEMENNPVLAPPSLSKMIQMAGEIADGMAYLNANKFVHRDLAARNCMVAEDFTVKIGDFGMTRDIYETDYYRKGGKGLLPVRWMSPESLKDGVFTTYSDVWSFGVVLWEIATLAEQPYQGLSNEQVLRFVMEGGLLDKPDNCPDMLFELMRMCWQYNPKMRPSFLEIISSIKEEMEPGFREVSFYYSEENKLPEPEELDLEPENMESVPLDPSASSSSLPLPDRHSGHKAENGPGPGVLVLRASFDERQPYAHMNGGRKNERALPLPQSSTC
# Procedure: as §1
# [1] = tested on: human ovary A2780 tumor cells; assay: Survival of nude mice bearing intraperitoneal human ovarian A2780 tumors; format: in vivo; settings: for median survival time: IV, control 28 days
# Procedure: In order to determine the effect of the compounds of the present invention on the growth and spread of tumors in-vivo, the compounds were administered to nude mice bearing human ovarian cancer. […] A model of peritoneal carcinomatosis formation, involving intraperitoneal administration of human ovary A2780 tumor cells, was used.
# Two million human ovarian A2780 cells were injected to the peritoneum of 4-5 weeks old female nude mice. A week later, treatments with compound 3 or vehicle were initiated. Compound 3 was administered IV, daily at a dose of 3 mg/kg or weekly at a dose of 12 mg/kg for the time periods indicated in FIG. 7. The control group was weekly administered (IV) with the vehicle (20% 2-hydroxypropyl-b-cyclodextrin). Each group included 10 mice.
# human myeloma CAG cells = assay: Cell proliferation, CAG (Example 2); format: cell-based; settings: multiple myeloma, 72 hours, 0.1% DMSO, WST-1
# Procedure: (§2) Human ovary cancer A2780 cells lines were seeded at a density of 5000 cells/well, human melanoma A375 cells were plated at a density of 2,500 cells/well, human colon carcinoma HCT15 cells were plated at a density of 3,000 cells/well, human prostate carcinoma PC3 cells were plated at a density of 1,500 cells/well, human breast carcinoma MCF7 cells were plated at a density of 5,000 cells/well, human breast carcinoma MDA MB 468 cells were plated at a density of 6,000 cells/well, human myeloma U266, RPMI8226 and CAG cells were plated at a density of 10,000 cells/well. All cells were plated in 96-well plates in 90 μl growth medium containing 10% FCS, 100 units/ml penicillin and 100 μg/ml streptomycin. Compound 3 was added a day later in […] of 1% DMSO in DDW to obtain final concentrations of 0, 0.1, 0.3, 1, 3, and 10 μM. The final concentration of DMSO (0.1% DMSO) was kept constant in all samples. […] The optical density values were read at 630 nm in ELISA plate reader. Non-adhered cells were exposed to WST-1 reagent for 5 hours following 72 hours treatment with the inhibitors, and optical density values were read at 630 nm in ELISA plate reader. The data was analyzed in Microsoft Excel, using the vehicle control as 100% proliferation. […]
# [2] = tested on: human breast carcinoma MDA MB 468 cells; assay: Cell proliferation, MDA MB 468 (Example 2); format: cell-based; settings: MDA-468, breast cancer, 72 hours, 0.1% DMSO
# Procedure: as §2
SMILES,"IGF1-induced activation of the Akt/PKB pathway (Akt/PKB pathway; 3 μM, 48 hr, 50 ng/ml IGF-1 5 minutes, FIG. 6B)","IGF1-induced activation of PKB/Akt after washout (Akt/PKB pathway; 5 μM for 4 hr, washed, 24 hr after washout, FIG. 6C)",IGF1-induced activation of the downstream signaling component PKB (PKB),"IGF1-induced auto-phosphorylation of IGF-1R (IGF-1R; 48 hr, 50 ng/ml IGF-1 5 minutes)",duration of the inhibitory effect (IGF-1R),"median survival time compared to Cisplatin and Sunitinib ([1]; 50 mg/kg daily IV vs Cisplatin 3 mg/kg ip 3 times a week for two weeks and Sunitinib 40 mg/kg daily PO, data not shown)","median survival time ([1]; daily, 3 mg/kg, FIG. 7)","median survival time ([1]; weekly, 12 mg/kg, FIG. 7)","survival compared to control mice ([1]; intravenous treatment, 3 mg/kg daily or 12 mg/kg weekly, FIG. 7)",IC50 (human myeloma CAG cells),IC50 [2]
O=c1c(O)cc2cnc(/C=C/c3ccc(O)c(O)c3Br)sc-2c1O [Compound 5],blocked the IGF1-induced activation of the Akt/PKB pathway,blocked,,,,,,,,,
O=c1c(O)cc2cnc(/C=C/c3cc(O)c(O)c(Br)c3)sc-2c1O [Compound 3],,,significantly inhibited,significantly inhibited,more than 48 hr,preferable median survival time,over 81 days,over 81 days,dramatically increased survival,1200 nM,3800 nM
